Measurements taken from US11584928B2, “Methods for generating barcoded combinatorial libraries” (The Regents of the University of Colorado, priority 2016, dated 2023).

These substances were tested on galK (assay: galK editing with MAD2 or MAD7 nuclease and various guide nucleic acid scaffolds, white/red screening). Conditions: guide sequence targeting galK.
Format: cell-based, E. coli
Excerpt: MAD2 and MAD7 nucleases are nucleic acid-guided nuclease that can be used in the methods disclosed herein. Nucleases Mad2 (SEQ ID NO: 2) and Mad 7 (SEQ ID NO: 7) were cloned and transformed into cells. Editing cassettes designed to mutate a target site in a galK gene were designed with mutations, which allowed for white/red screening of successfully editing colonies. The editing cassettes also encoded a guide nucleic acid designed to target galK. The editing cassettes were transformed into E. coli cells expressing MAD2, MAD7, or Cas9. […] In this example, the guide nucleic acid used with MAD2 and MAD7 comprised a scaffold-12 sequence and a guide sequence targeting galK. The guide nucleic acid used with Cas9 comprised a sequence compatible with the S. pyogenes Cas9.
(§1) FIG. 32 and Table 3 show more examples of gene editing using the MAD2 nuclease. In this experiment, different guide nucleic acid sequences were tested. The guide sequence of the guide nucleic acids targeted the galK gene as described above. The scaffold sequence of the guide nucleic acids were one of various sequences tested as indicated.
as §1, with “33” for “32”, “4” for “3”, “MAD7” for “MAD2”, “indicated. […] Table 3 and Table 4 also provided the designed mutations in the editing cassettes that were used to mutate the galK target gene.” for “indicated.”

Substance	formation of functional complexes with MAD2	formation of functional complexes with MAD7
scaffold-5: guide nucleic acid scaffold sequence, SEQ ID NO: 88 (guide CCGTCTAAAACTCATTCAGAATTTCTACTAGTGTAGAT; chemistry not given here)	able to form functional complexes	
scaffold-12: guide nucleic acid scaffold sequence, SEQ ID NO: 95 (guide GTCAAAAGACCTTTTTAATTTCTACTCTTGTAGAT; chemistry not given here)	able to form functional complexes	able to form functional complexes
scaffold-10: guide nucleic acid scaffold sequence, SEQ ID NO: 93 (guide CTCTACAACTGATAAAGAATTTCTACTTTTGTAGAT; chemistry not given here)	able to form functional complexes	able to form functional complexes
scaffold-11: guide nucleic acid scaffold sequence, SEQ ID NO: 94 (guide GTCTGGCCCCAAATTTTAATTTCTACTGTTGTAGAT; chemistry not given here)	able to form functional complexes	able to form functional complexes
